Legend:
[1] = in vivo; cited from earlier work
dog renin = biological target: T1, dog renin (Canis lupus familiaris, UniProt Q6DYE7); assay: renin inhibitory potency against dog renin; type: biochemical; conditions: compared with human renin
T1 sequence (Q6DYE7 66-403): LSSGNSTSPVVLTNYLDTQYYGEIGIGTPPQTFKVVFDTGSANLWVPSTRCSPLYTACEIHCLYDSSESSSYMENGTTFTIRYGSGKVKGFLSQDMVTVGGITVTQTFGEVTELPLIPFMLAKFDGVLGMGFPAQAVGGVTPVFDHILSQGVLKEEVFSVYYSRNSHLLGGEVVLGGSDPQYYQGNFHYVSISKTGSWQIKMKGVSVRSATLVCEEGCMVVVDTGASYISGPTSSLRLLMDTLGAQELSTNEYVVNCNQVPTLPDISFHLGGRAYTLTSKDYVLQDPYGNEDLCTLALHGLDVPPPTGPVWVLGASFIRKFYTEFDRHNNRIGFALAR

mouse renin = assay: renin inhibitory potency against mouse renin; type: biochemical; conditions: compared with human renin
rat renin = biological target: T2, rat renin (Rattus norvegicus, UniProt P08424); assay: renin inhibitory potency against rat renin; type: biochemical; conditions: loss of potency against rat renin
T2 sequence (P08424 65-402): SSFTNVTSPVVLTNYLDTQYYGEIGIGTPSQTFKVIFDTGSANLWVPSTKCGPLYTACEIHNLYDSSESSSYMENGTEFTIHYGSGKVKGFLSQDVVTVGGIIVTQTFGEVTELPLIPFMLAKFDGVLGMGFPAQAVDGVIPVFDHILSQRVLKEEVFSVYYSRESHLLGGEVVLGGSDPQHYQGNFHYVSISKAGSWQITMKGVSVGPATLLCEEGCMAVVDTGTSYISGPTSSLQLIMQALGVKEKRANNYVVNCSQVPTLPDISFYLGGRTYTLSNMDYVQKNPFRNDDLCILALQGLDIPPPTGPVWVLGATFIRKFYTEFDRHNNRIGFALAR

Structure (SMILES)	effect on weight loss [1]	potency against dog renin (dog renin)	potency against mouse renin (mouse renin)	weaker as a rat renin inhibitor (rat renin)
CC1(C)O[C@@H]2[C@@H](CO[C@@]3(COS(N)(=O)=O)OC(C)(C)O[C@@H]23)O1 [Topiramate]	increase weight loss			
COCCCOc1cc(C[C@@H](C[C@H](N)[C@@H](O)C[C@H](C(=O)NCC(C)(C)C(N)=O)C(C)C)C(C)C)ccc1OC [aliskiren, 2(S),4 (S),5(S),7(S)—N-(3-amino-2,2-dimethyl-3-oxopropyl)-2,7-di(1-methylethyl)-4-hydroxy-5-amino-8-[4-methoxy-3-(3-methoxy-propoxy)phenyl]-octanamide]		reasonable potency	reasonable potency	1-2 orders of magnitude
NS(=O)(=O)Cc1noc2ccccc12 [Zonisamide]	lead to weight loss			
